Measurements reported in US8497245B2, “Trypsin-like serine protease inhibitors, their preparation and use as selective inhibitors of the clotting factors IIa and Xa” (The Medicines Company (Leipzig) GmbH, priority 2010, dated 2013).
pKi: −log10 of the molar value. Counter-ions that a name gives are not always drawn. Like-named read-outs stand apart in the source and are kept apart here.

Tests used:
Format in all cases: biochemical
[1] = target: T1, Human tissue-type plasminogen activator (h t-PA) (Homo sapiens, UniProt P00750); experiment: Inhibition of human tissue-type plasminogen activator (reference enzyme)
T1 construct: purchased Boehringer Ingelheim Actilyse
Protocol: The equilibrium rates were used to calculate the inhibitor/enzyme dissociation constant (Ki values) by parameter fitting in accordance with the rate equation for competitive inhibition using GraFit (version 4 from Erithacus).
(§1) Dissociation constants were calculated as described herein.

[2] = target: T2, Human urokinase type plasminogen activator (h u-PA) (Homo sapiens, UniProt P00749); experiment: Inhibition of human urokinase type plasminogen activator (reference enzyme); details: H-Glu-Gly-Arg-pNA substrate
T2 construct: purchased MEDAC GmbH Urokinase HS medac
Protocol: (§2) The inhibitory effect against the individual purified enzymes was determined in analogy to a previously disclosed method (Stürzebecher et al., J. Med. Chem., 40, 3091-3099 (1997)).
(§3) The release of p-nitroaniline (p-NA, the chromogenic product of the proteolytic activity), was determined by change in absorbance at 405 nm. The equilibrium rates were used to calculate the inhibitor/enzyme dissociation constant (Ki values) by parameter fitting in accordance with the rate equation for competitive inhibition using GraFit (version 4 from Erithacus). The results are reported as Ki values (nanomolar) in table 7 and are the average of at least three determinations.
as §1

[3] = target: T3, Subcomponent "r" of Human Complement Component 1 (h C1r) (Homo sapiens, UniProt P00736); experiment: Inhibition of human C1r (reference enzyme); details: S-2314 substrate; read-out: Ki h Clr
T3 construct: purchased Calbiochem
T3 sequence (P00736 464-705 limits assumed): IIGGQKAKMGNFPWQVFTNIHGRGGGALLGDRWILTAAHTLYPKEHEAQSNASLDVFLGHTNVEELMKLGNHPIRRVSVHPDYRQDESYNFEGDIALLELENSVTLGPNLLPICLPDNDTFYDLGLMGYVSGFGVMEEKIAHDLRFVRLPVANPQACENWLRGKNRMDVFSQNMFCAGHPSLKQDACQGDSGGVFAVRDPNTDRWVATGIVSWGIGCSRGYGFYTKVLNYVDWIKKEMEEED
T3 sequence (P00736 18-463 partner limits assumed): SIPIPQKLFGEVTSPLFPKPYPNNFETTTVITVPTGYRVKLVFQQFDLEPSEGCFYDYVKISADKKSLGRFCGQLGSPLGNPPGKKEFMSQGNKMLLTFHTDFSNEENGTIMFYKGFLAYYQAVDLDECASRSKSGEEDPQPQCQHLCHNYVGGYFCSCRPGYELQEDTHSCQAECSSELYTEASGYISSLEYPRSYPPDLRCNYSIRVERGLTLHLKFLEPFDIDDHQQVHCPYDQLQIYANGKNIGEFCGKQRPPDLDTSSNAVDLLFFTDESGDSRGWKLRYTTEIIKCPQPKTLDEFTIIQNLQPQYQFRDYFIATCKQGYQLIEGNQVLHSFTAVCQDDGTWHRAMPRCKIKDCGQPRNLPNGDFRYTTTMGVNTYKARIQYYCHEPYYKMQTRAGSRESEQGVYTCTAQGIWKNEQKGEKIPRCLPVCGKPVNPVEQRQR
Protocol: as §2, §3, §1

[4] = target: T4, Human plasma kallikrein (h PK) (Homo sapiens, UniProt P03952); experiment: Inhibition of human plasma kallikrein (reference enzyme); details: S2302 substrate
T4 construct: purchased Enzyme Research Laboratories
Protocol: as §2, §3, §1

[5] = target: T5, Human urinary kallikrein (h uKK) (Homo sapiens, UniProt P06870); experiment: Inhibition of human urinary kallikrein (reference enzyme); details: S-2266 substrate
T5 construct: purchased Lee Biosolutions
Protocol: as §2, §3, §1

[6] = target: T6, human factor IIa (human alpha-thrombin) (Homo sapiens, UniProt P00734); experiment: Inhibition constants for human factor IIa, chromogenic substrate assay; details: 25° C., Pefachrome tPA substrate, average of at least three determinations; read-out: Ki h FIIa
T6 construct: human alpha-thrombin from Enzyme Research Laboratories; purchased Enzyme Research Laboratories
Protocol: as §2
(§4) 200 μL of TBS (0.05 M trishydroxymethylaminomethane; 0.154 M NaCl, 2% ethanol, pH 8.0)
as §3

human Factor Xa = target: T7, human Factor Xa (Homo sapiens, UniProt P00742); experiment: Inhibition constants for human factor Xa, chromogenic substrate assay; details: 25° C., Pefachrome FXa substrate, average of at least three determinations; read-out: Ki h FXa
T7 construct: human Factor Xa from Enzyme Research Laboratories; purchased Enzyme Research Laboratories
Protocol: as §2, §4, §3

[7] = target: T8, Subcomponent "s" of Human Complement Component 1 (h C1s) (Homo sapiens, UniProt P09871); experiment: Inhibition of human C1s (reference enzyme); details: S-2314 substrate; read-out: Ki h Cls
T8 construct: purchased Calbiochem
T8 sequence (P09871 438-688 limits assumed): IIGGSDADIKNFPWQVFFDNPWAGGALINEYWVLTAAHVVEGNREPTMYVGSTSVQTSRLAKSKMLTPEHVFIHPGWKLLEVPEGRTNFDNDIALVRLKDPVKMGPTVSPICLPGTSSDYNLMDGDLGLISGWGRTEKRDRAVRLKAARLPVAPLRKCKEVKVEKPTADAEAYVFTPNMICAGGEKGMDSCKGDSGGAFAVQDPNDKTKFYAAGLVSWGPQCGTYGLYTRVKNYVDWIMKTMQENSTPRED
T8 sequence (P09871 16-437 partner limits assumed): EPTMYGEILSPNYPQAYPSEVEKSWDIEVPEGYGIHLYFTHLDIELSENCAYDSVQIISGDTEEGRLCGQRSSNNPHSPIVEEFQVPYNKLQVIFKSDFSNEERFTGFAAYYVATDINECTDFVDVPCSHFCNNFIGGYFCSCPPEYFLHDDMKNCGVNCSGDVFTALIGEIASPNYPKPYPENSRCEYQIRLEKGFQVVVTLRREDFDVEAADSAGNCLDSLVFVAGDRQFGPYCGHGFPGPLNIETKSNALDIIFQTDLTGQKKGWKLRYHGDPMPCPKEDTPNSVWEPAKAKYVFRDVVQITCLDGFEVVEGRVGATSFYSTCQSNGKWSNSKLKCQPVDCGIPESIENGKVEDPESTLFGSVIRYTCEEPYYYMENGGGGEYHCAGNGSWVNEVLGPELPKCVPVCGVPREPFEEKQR
Protocol: as §2, §3, §1

[8] = target: T9, Human Activated Protein C (h aPC) (Homo sapiens, UniProt P04070); experiment: Inhibition of human activated protein C (reference enzyme); details: Pefachrome PCa substrate
T9 construct: purchased Enzyme Research Laboratories
Protocol: as §2, §3, §1

[9] = target: T10, Human plasmin (h plasmin) (Homo sapiens, UniProt P00747); experiment: Inhibition of human plasmin (reference enzyme); details: Chromozym PL substrate
T10 construct: purchased Calbiochem
Protocol: as §2, §3, §1

[10] = Pefachrome tPA substrate, read-out: Ki h t-PA

T1 sequence (P00750 36-562): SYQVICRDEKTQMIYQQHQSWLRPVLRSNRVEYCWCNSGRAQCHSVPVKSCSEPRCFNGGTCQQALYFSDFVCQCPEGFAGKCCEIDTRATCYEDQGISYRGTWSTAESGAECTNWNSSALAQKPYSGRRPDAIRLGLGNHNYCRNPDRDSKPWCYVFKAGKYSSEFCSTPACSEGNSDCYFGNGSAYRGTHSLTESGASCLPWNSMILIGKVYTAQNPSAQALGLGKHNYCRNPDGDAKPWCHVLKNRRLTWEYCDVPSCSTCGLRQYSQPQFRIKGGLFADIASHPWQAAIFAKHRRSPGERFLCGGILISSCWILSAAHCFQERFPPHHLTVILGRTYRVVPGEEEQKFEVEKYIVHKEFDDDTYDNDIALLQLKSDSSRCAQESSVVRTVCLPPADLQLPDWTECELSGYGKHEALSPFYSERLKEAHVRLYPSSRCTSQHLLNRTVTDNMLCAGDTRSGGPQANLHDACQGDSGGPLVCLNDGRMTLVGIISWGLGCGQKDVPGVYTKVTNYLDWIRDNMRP
T9 sequence (P04070 212-450 limits assumed): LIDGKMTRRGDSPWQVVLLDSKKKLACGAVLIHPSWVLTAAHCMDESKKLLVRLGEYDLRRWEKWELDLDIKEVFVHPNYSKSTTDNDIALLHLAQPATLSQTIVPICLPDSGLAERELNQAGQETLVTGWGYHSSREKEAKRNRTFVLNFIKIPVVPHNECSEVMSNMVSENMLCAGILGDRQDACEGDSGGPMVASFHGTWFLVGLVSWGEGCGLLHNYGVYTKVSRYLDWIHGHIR
T9 sequence (P04070 43-197 partner limits assumed): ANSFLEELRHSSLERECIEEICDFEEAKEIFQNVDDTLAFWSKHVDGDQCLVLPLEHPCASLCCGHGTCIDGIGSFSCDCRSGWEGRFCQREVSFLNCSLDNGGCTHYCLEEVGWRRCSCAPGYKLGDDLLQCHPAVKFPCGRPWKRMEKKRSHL
T4 sequence (P03952 391-638 limits assumed): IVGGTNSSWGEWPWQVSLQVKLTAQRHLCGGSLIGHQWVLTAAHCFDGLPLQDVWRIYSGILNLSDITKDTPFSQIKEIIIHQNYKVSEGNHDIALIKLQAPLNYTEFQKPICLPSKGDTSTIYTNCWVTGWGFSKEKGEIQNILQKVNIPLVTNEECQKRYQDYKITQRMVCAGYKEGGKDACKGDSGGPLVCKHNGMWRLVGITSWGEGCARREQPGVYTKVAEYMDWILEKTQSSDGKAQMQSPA
T4 sequence (P03952 20-390 partner limits assumed): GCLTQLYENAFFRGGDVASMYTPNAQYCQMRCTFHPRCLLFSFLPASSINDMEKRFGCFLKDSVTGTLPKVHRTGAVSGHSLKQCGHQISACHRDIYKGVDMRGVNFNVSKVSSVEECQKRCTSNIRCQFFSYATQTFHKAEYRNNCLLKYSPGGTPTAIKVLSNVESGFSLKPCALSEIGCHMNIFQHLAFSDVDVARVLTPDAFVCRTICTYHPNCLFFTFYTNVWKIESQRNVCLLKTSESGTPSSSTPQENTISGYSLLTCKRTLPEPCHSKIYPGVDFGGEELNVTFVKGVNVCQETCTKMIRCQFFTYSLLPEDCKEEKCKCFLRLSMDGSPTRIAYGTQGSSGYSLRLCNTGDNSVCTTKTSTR
T7 sequence (P00742 235-488 limits assumed): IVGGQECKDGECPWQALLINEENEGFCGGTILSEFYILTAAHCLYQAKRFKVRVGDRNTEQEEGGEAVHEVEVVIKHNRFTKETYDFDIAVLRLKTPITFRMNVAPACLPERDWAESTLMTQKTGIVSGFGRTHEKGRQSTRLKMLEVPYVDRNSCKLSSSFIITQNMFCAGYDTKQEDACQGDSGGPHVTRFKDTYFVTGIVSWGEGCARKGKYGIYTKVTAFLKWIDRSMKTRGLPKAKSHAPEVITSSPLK
T7 sequence (P00742 41-179 partner limits assumed): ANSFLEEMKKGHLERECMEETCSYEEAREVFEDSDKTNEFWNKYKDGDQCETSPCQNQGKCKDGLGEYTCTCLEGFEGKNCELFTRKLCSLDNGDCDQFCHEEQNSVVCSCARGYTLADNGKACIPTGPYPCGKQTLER
T10 sequence (P00747 581-810 limits assumed): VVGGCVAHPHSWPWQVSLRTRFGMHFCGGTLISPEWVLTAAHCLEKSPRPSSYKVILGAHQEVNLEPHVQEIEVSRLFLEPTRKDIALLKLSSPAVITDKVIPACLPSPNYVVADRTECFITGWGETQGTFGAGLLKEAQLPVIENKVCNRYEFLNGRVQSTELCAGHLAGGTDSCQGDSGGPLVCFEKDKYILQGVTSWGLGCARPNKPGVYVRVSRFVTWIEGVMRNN
T10 sequence (P00747 97-580 partner limits assumed): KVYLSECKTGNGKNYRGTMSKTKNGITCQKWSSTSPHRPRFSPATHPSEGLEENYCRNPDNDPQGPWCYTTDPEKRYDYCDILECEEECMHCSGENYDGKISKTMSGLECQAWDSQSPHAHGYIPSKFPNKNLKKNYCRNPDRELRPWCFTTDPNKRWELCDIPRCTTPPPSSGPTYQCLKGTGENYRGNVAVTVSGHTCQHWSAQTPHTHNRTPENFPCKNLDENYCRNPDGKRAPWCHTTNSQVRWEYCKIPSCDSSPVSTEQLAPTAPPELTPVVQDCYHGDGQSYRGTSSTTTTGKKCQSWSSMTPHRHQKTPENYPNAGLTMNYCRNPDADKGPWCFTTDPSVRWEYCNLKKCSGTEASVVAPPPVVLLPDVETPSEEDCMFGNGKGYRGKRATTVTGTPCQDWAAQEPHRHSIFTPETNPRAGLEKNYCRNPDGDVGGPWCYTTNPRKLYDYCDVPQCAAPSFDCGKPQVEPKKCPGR
T5 sequence (P06870 25-262): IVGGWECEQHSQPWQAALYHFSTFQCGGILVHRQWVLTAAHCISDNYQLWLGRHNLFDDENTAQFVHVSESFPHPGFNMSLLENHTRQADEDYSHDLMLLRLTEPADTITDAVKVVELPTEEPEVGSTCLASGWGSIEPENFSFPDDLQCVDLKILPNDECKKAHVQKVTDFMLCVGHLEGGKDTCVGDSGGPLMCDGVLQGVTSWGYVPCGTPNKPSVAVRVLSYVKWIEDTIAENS

SMILES | pKi [1, 10] | pKi [2] | pKi [3] | pKi [4] | pKi [5] | pKi [6] | pKi (human Factor Xa) | pKi [7] | pKi [8] | pKi [9] | pKi [1]
NCc1ccc(Cl)cc1CNC(=O)[C@@H]1CCCN1C(=O)[C@@H](CCC(=O)N1CCOCC1)NS(=O)(=O)Cc1ccccc1 [Compound 2.1, Bzls-D-Glu(morpholino)-L-Pro-Amb(2-AMe-5-Cl)×1 TFA] | < 4.70 | < 4.40 | < 3.70 | 5.73 | < 4.22 | 9.37 | 8.96 | < 4.10 | < 4.00 | < 4.55 | –
CC(=O)N1CCC(N(C)C(=O)C[C@@H](NS(=O)(=O)Cc2ccccc2)C(=O)N2CCC[C@H]2C(=O)NCc2cc(Cl)ccc2CN)CC1 [Compound 2.2] | < 4.00 | < 4.30 | < 4.30 | 5.35 | < 5.00 | 8.51 | 7.64 | < 4.00 | < 4.05 | < 5.00 | –
CN(C(=O)C[C@@H](NS(=O)(=O)Cc1ccccc1)C(=O)N1CCC[C@H]1C(=O)NCc1cc(Cl)ccc1CN)C1CCNCC1 [Compound 2.3] | – | < 4.00 | < 4.00 | 5.27 | < 4.30 | 8.52 | 7.64 | < 4.70 | < 5.00 | < 4.00 | < 4.30
CN(C(=O)C[C@@H](NS(=O)(=O)Cc1ccccc1)C(=O)N1CCC[C@H]1C(=O)NCc1cc(Cl)ccc1CN)C1CCOCC1 [Compound 2.4] | < 4.00 | < 4.40 | < 5.00 | 6.58 | < 4.30 | 9.25 | 8.89 | < 4.60 | < 5.00 | < 4.70 | –
NCc1ccc(Cl)cc1CNC(=O)[C@@H]1C[C@@H](N)CN1C(=O)[C@@H](CC(=O)N1CCNCC1)NS(=O)(=O)Cc1ccccc1 [Compound 2.5] | 5.03 | < 4.00 | < 4.00 | 6.19 | < 4.00 | 7.74 | 8.55 | < 4.70 | < 4.70 | < 5.00 | –
NCc1ccc(Cl)cc1CNC(=O)[C@@H]1C[C@H](N)CN1C(=O)[C@@H](CC(=O)N1CCCCC1)NS(=O)(=O)Cc1ccccc1 [Compound 2.6] | 5.30 | < 4.52 | < 4.70 | 6.47 | < 4.30 | 9.74 | 10.31 | < 4.70 | < 4.00 | 5.06 | –
NCc1ccc(Cl)cc1CNC(=O)[C@@H]1C[C@@H](N)CN1C(=O)[C@@H](CC(=O)N1CCCCC1)NS(=O)(=O)Cc1ccccc1 [Compound 2.7] | 4.82 | < 4.30 | < 4.70 | 6.49 | < 4.30 | 9.24 | 9.74 | < 4.52 | < 4.30 | 4.93 | –
NCc1ccc(Cl)cc1CNC(=O)[C@@H]1CCCN1C(=O)[C@@H](CC(=O)N1CCCC1)NS(=O)(=O)Cc1ccccc1 [Compound 2.8] | < 5.00 | < 4.10 | < 4.00 | 6.47 | < 4.00 | 9.68 | 9.89 | < 4.30 | < 4.40 | < 4.70 | –
CC(=O)N1CCC(N(C)C(=O)CC[C@@H](NS(=O)(=O)Cc2ccccc2)C(=O)N2CCC[C@H]2C(=O)NCc2cc(Cl)ccc2CN)CC1 [Compound 2.28] | < 4.00 | < 4.70 | < 4.00 | – | < 4.00 | 9.24 | 7.44 | < 4.70 | < 4.30 | 5.25 | –
NCc1ccc(Cl)cc1CNC(=O)[C@@H]1CCCN1C(=O)[C@@H](CCC(=O)O)NS(=O)(=O)Cc1ccccc1 [Compound 2.29] | < 4.70 | < 4.00 | < 5.00 | < 4.70 | – | 8.48 | 7.03 | < 4.30 | < 4.60 | < 4.82 | –
NCc1ccc(Cl)cc1CNC(=O)[C@@H]1CCCN1C(=O)[C@@H](CC(=O)N1CCOCC1)NS(=O)(=O)Cc1ccccc1 [Compound 2.36] | 4.74 | < 4.40 | < 4.52 | 6.25 | – | 9.47 | 9.42 | < 4.00 | < 4.00 | < 4.92 | –
NCc1ccc(Cl)cc1CNC(=O)[C@@H]1CCCN1C(=O)[C@@H](CC(=O)N1CCSCC1)NS(=O)(=O)Cc1ccccc1 [Compound 2.37] | 4.72 | < 4.70 | < 3.70 | 6.38 | – | 9.31 | 9.27 | < 4.10 | < 4.40 | 5.22 | –
NCc1ccc(Cl)cc1CNC(=O)[C@@H]1CCCN1C(=O)[C@@H](CC(=O)N1CC[S+]([O-])CC1)NS(=O)(=O)Cc1ccccc1 [Compound 2.38] | < 4.70 | < 4.22 | < 3.70 | 6.21 | – | 8.11 | 8.26 | < 4.10 | < 4.30 | – | –
NCc1ccc(Cl)cc1CNC(=O)[C@@H]1CCCN1C(=O)[C@@H](CC(=O)N1CCS(=O)(=O)CC1)NS(=O)(=O)Cc1ccccc1 [Compound 2.39] | – | – | – | – | – | 7.73 | 7.81 | – | < 6.30 | – | –
CC(=O)N1CCN(C(=O)C[C@@H](NS(=O)(=O)Cc2ccccc2)C(=O)N2CCC[C@H]2C(=O)NCc2cc(Cl)ccc2CN)CC1 [Compound 2.40] | < 4.70 | < 4.30 | < 4.30 | 6.32 | – | 8.20 | 8.62 | < 4.10 | < 4.00 | 5.05 | –
NCc1ccc(Cl)cc1CNC(=O)[C@@H]1CCCN1C(=O)[C@@H](CC(=O)Nc1cc[n+]([O-])cc1)NS(=O)(=O)Cc1ccccc1 [Compound 2.48, Bzls-D-Asp(1-oxido-4-amino-pyridine)-L-Pro-Amb(2-AMe-5-Cl)] | 4.57 | < 4.00 | < 4.00 | 6.10 | < 4.00 | 8.60 | 7.77 | < 4.70 | < 5.00 | – | –
